{
  "source": "paper PMC4399838",
  "about": "“Antipsychotic-Like Effect of the Muscarinic Acetylcholine Receptor Agonist BuTAC in Non-Human Primates” (PLoS ONE, 2015)",
  "key": {"[1]": {"target": "T1, human M5 muscarinic receptor (Homo sapiens, UniProt P08912)", "T1 construct": "purchased PerkinElmer Life and Analytical Sciences, Boston, MA", "T1 sequence (P08912 1-532)": "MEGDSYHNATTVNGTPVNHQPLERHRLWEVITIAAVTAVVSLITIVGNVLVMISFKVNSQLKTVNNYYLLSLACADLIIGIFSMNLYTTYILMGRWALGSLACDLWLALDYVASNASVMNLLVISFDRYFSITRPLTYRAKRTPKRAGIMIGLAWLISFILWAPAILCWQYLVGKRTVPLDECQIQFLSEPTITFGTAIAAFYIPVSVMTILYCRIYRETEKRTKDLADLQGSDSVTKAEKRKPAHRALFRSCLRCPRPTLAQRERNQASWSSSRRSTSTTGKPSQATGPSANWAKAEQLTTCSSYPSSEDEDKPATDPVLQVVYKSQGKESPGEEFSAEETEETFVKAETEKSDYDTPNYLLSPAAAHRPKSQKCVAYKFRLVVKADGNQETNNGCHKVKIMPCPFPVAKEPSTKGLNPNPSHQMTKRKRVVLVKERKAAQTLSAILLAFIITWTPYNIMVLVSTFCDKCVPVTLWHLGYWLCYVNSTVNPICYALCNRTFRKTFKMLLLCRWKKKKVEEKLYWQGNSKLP", "parameters": "method as in Watt et al. 2013 [10]", "details": "ref Watt et al. 2013 [10], cited from earlier work"}, "[2]": {"tested_on": "antipsychotic-naïve Cebus Apella monkeys", "assay": "Side effects of BuTAC alone or with d-amphetamine", "format": "in vivo", "experimental": "Seven male Cebus Apella monkeys were used for evaluation the anti-amphetamine effect and the side effect profile of BuTAC. These monkeys were never before administered antipsychotics and had never experienced EPS, but had previously been administered amphetamine. For further evaluation of the EPS potential of BuTAC, the compound was tested in four male and female monkeys, all sensitized to drug-induced EPS by earlier chronic treatment with classical antipsychotic drugs.\nAll monkeys received all treatments with at least one week between tests and thus served as their own control. To avoid extended physical contact with the experimenter, the cages were reduced in sized by moving the back wall of the cage closer to the front wall to lightly immobilize the monkey while injecting the test substance in the thigh. This was done at 9 am at test days. After the appropriate pre-treatment time, the monkeys were videotaped in their cages at predefined time points after drug injection.\nThe rated primate behaviours and symptoms were the following: unrest, stereotypy, arousal, sedation and bradykinesia (Table 1). All monkeys were videotaped in 90-sec. sessions at specific time points throughout the test sessions. The videotapes were rated for amphetamine-induced behaviours and EPS by two experienced raters blinded to the treatment of the animal by means of a rating scale adapted from Peacock et al. and previously described by Andersen et al. (Table 1). In case of any discrepancy between the two ratings, the recording in question was re-evaluated and a rating agreed upon. The monkeys were videotaped at t = 30, 60, 90, 135, 150, 165, 180, 240, 300 min after BuTAC (or vehicle) administration. For the combination studies, d-amphetamine was injected at t = 120 min. Oral dyskinesia was measured in counts per 90 sec. The severity of other behaviours and symptoms were rated on a scale ranging from 0 (not present) to 6 (extreme presence).\nFor evaluation of anti-amphetamine effects, BuTAC was tested in doses of 0.001, 0.003, 0.01 mg/kg in combination with 0.5 mg/kg of d-amphetamine. BuTAC or peanut oil vehicle was injected s.c. at approximately 9 a.m. Pre-treatment time before s.c. injection of amphetamine was 120 min. For evaluation of side effects, BuTAC was tested alone at doses of 0.001, 0.003 and 0.01 mg/kg in antipsychotic-naïve monkeys and at doses of 0.003 and 0.01 mg/kg in monkeys sensitized to extrapyramidal side effects (EPS) by earlier long-term treatment with first generation antipsychotics. […] None of the animals were sacrificed.\nData from the experiments where BuTAC was administered alone collected at t = 60, 180, 300 min are presented. For the d-amphetamine / BuTAC study, data collected at t(amp) = 60, 120 and 180 min (t = 180, 240, 300 min) are reported. Data were analyzed for overall treatment effects at each time point by means of the non-parametric Friedman’s test for repeated measures. The Student Newman-Keuls comparison procedure was used to analyze for specific dose effects. For all tests, the accepted level of significance was p<0.05."}, "[3]": {"details": "BuTAC 0.001 mg/kg / d-amphetamine 0.5 mg/kg"}, "[4]": {"details": "BuTAC alone 0.001, 0.003, 0.01 mg/kg"}},
  "data": [
    {"smiles": "CCCCSc1nsnc1[C@H]1CN2CCC[C@H]1C2", "note": "[BuTAC, (5R,6R)-6-(3-butylthio-1,2,5-thiadiazol-4-yl)-1-azabicyclo[3.2.1]octane]", "values": [
      {"measurement": "Rel pEC50", "setting": "[1]; agonist mode, negative log-transformed", "value": "7.63 ± 7.41", "unit": "M"},
      {"measurement": "% Emax", "setting": "[1]; agonist mode", "value": "10.77 ± 10.87", "unit": "%"},
      {"measurement": "Rel pIC50", "setting": "[1]; antagonist mode, negative log-transformed", "value": "8.29 ± 8.16", "unit": "M"},
      {"measurement": "% Inhibition", "setting": "[1]; antagonist mode", "value": "96.31 ± 3.87", "unit": "%"},
      {"measurement": "Emetic events (vomiting) (monkeys affected)", "setting": "[2]; [3]", "value": 0},
      {"measurement": "Sedation 2 ≤ X ≤ 5 (monkeys affected)", "setting": "[2]; [3]", "value": 0},
      {"measurement": "Salivation (monkeys affected)", "setting": "[2]; BuTAC 0.001 mg/kg / vehicle", "value": 0},
      {"measurement": "Sedation 2 ≤ X ≤ 5 (monkeys affected)", "setting": "[2]; BuTAC 0.001 mg/kg / vehicle", "value": 0},
      {"measurement": "Sedation 2 ≤ X ≤ 5 (monkeys affected)", "setting": "[2]; BuTAC 0.003 mg/kg / d-amphetamine 0.5 mg/kg", "value": 0},
      {"measurement": "Salivation (monkeys affected)", "setting": "[2]; BuTAC 0.003 mg/kg / vehicle", "value": 0},
      {"measurement": "Muscular relaxation (monkeys affected)", "setting": "[2]; BuTAC 0.01 mg/kg (footnote of Table 3)", "value": "all monkeys"},
      {"measurement": "Sedation 2 ≤ X ≤ 5 (monkeys affected)", "setting": "[2]; BuTAC 0.01 mg/kg / d-amphetamine 0.5 mg/kg", "value": 0},
      {"measurement": "Muscular relaxation (monkeys affected)", "setting": "[2]; BuTAC 0.001 and 0.003 mg/kg (footnote of Table 3)", "value": "one"},
      {"measurement": "Muscular relaxation (monkeys affected)", "setting": "[2]; BuTAC 0.003 and 0.01 mg/kg combined with d-amphetamine", "value": "Six"},
      {"measurement": "Unrest (rating 0–6)", "setting": "[2]; BuTAC alone 0.01 mg/kg, after 180 and 300 min, p<0.05", "value": "decrease in unrest"},
      {"measurement": "Sedation (rating 0–6)", "setting": "[2]; BuTAC alone 0.01 mg/kg, all three test times, p<0.05 relative to vehicle", "value": "produced sedation"},
      {"measurement": "Arousal", "setting": "[2]; [4]", "value": "no significant effect"},
      {"measurement": "Stereotypies, oral dyskinesia, bradykinesia or dystonia", "setting": "[2]; [4]", "value": "not observed"},
      {"measurement": "Sedation, oral dyskinesia, bradykinesia or dystonia", "setting": "[2]; BuTAC and d-amphetamine", "value": "not observed"},
      {"measurement": "EPS", "setting": "[2]; EPS naive monkeys", "value": "did not induce EPS"}
    ]}
  ]
}
